{"source": "patent US12390470B2", "about": "“1-methylxanthine-based bioactive composition and method of use thereof” (Ingenious Ingredients, LP, priority 2021, dated 2025)", "key": {"[1]": {"test_system": "male Swiss Albino mice", "experiment": "Passive shock avoidance test, scopolamine-induced amnesia", "format": "in vivo", "description": "Behavioral studies were conducted in mice to examine the learning and memory ability by using Cook's pole and Passive shock avoidance test.\n(§1) Twenty-four 8-week-old male Swiss Albino mice were housed in an animal room at a constant temperature (22±3° C.) and humidity (30%-70%) under a 12:12 h light-dark cycle with standard laboratory diet (Purina 5L79, Rat and Mouse 18% protein; PMI Nutrition International, Brentwood, MO, USA). Distilled water was provided ad libitum. All animal experiments were reviewed and approved by the Institutional Animal Ethical Committee (IAEC) of Radiant Research Services Pvt. Ltd (Bangalore, India). All research was conducted in accordance with the guidelines of the committee for the purpose of control and supervision of experiments on animals.\nAfter one week of acclimation, the animals were randomly divided by body weight into three groups (n=8 per group in each test) for oral treatment once a day, at approximately same time each day (±1 hour), for 7 consecutive days: (1) vehicle control or (2) 1-methylxanthine or (3) 1-methylxanthine plus paraxanthine. The dose administered to the mice was calculated using US Food and Drug Administration for human equivalence doses (HED), assuming a human weight of 60 kg. […] Food intake was monitored daily while water intake was ad libitum. […]"}, "[2]": {"test_system": "catalase", "experiment": "Catalase level in young and old rats", "format": "in vivo", "description": "as §1, with “young (6-8 Week) and twenty-four old (14-16 Months)” for “8-week-old male”, “Wistar rats” for “mice”\n(§2) After one week of acclimation, the animals were randomly divided by body weight and age into six groups (n=8 per group in each test) for oral treatment once a day, at approximately same time each day (±1 hour), for 10 consecutive days: (1) vehicle control or (2) 1-methylxanthine or (3) 1-methylxanthine plus paraxanthine. The dose administered to the rat was calculated using US Food and Drug Administration for human equivalence doses (HED), assuming a human weight of 60 kg. […] Food intake was monitored daily while water intake was ad libitum. […] Body weight was recorded weekly. […]"}, "[3]": {"experiment": "Brain weight in young and aged rats", "format": "in vivo", "description": "as §1, with “young (6-8 Week) and twenty-four old (14-16 Months)” for “8-week-old male”, “Wistar rats” for “mice”\nas §2"}, "[4]": {"test_system": "participants", "experiment": "Respiratory quotient, placebo-controlled crossover", "format": "in vivo, human", "description": "All supplements were orally ingested with 8 fluid ounces of cold tap water. The order of administration for all interventions was randomized using a random allocation software to ensure randomization and to avoid order effects. After ingestion, participants completed all assessments in an identical fashion 30, 60, 90, 120, and 180 minutes after ingestion of their assigned supplement. All study visits took place between 0600-1000 hours. At least 72 hours of rest will take place between each condition.\nThe lower the RQ, the more fat that is being oxidized for body energy needs. The closer to 1.0 the more carbohydrate is being burned for energy needs. If numbers are lower more fat is being oxidized."}}}
{"smiles": "Cn1c(=O)[nH]c2nc[nH]c2c1=O", "note": "[1-methylxanthine, 1-Methyl-3H-purine-2,6-dione]", "values": [{"measurement": "Transfer latency, passive shock avoidance test", "setting": "[1]; mice, oral 7 days, scopolamine", "result": "24.25 ± 2.60", "unit": "s"}, {"measurement": "Transfer latency faster than control", "setting": "[1]; mouse, in vivo", "result": 9.3, "unit": "%"}, {"measurement": "catalase levels", "setting": "[2]; old rats", "result": "32.78±1.26", "unit": "U/mL"}, {"measurement": "catalase levels", "setting": "[2]; young rats", "result": "33.32±1.68", "unit": "U/mL"}, {"measurement": "Brain weight", "setting": "[3]; aged animals", "result": "2 ± 0.074", "unit": "g"}, {"measurement": "Brain weight", "setting": "[3]; young animals", "result": "1.73 ± 0.027", "unit": "g"}, {"measurement": "respiratory quotient reduced compared to placebo", "setting": "[4]; 200 mg oral", "result": 15, "unit": "%"}, {"measurement": "greater fat loss than CA", "setting": "[4]; 200 mg oral, from respiratory quotient", "result": 2.3, "unit": "%"}, {"measurement": "Respiratory Quotient MEAN (30-180)", "setting": "[4]; Average", "result": 0.685}, {"measurement": "Respiratory Quotient MEAN (30-180)", "setting": "[4]; Person one", "result": 0.676}, {"measurement": "Respiratory Quotient", "setting": "[4]; Person one, 30 min after ingestion", "result": 0.69}, {"measurement": "Respiratory Quotient", "setting": "[4]; Person one, 60 min", "result": 0.66}, {"measurement": "Respiratory Quotient", "setting": "[4]; Person one, 90 min", "result": 0.67}, {"measurement": "Respiratory Quotient", "setting": "[4]; Person one, 120 min", "result": 0.69}, {"measurement": "Respiratory Quotient", "setting": "[4]; Person one, 180 min", "result": 0.67}, {"measurement": "Respiratory Quotient", "setting": "[4]; Person one, time 0, 200 mg oral", "result": 0.67}, {"measurement": "Respiratory Quotient MEAN (30-180)", "setting": "[4]; Person two", "result": 0.694}, {"measurement": "Respiratory Quotient", "setting": "[4]; Person two, 30 min", "result": 0.72}, {"measurement": "Respiratory Quotient", "setting": "[4]; Person two, 60 min", "result": 0.71}, {"measurement": "Respiratory Quotient", "setting": "[4]; Person two, 90 min", "result": 0.66}, {"measurement": "Respiratory Quotient", "setting": "[4]; Person two, 120 min", "result": 0.68}, {"measurement": "Respiratory Quotient", "setting": "[4]; Person two, 180 min", "result": 0.70}, {"measurement": "Respiratory Quotient", "setting": "[4]; Person two, time 0, 200 mg oral", "result": 0.70}]}
